Experimental data: patent US20250281461A1 (The Board of Supervisors of Louisiana State University and …, priority 2021, published 2025)
Values joined by “and” are separate entries in the source; they are usually repeats but may differ in a detail not shown here. Equal entries are not always repeated.

What was measured:
[1] = system: SARS-COV-2 virus (USA WA1/2020); assay: ACE2 mouse model, lung tissue RT-qPCR viral titer; assay type: in vivo; conditions: K18-hACE2 mice; for Lung Tissue RT-qPCR Viral Titer Log10, Group Mean: Day 6, 7 animals
Calu-3 = assay: Cytotoxicity of Imatinib in Calu-3 cells; conditions: any concentration tested (up to 100 μM)
[2] = system: SARS-COV-2 virus (USA WA1/2020); assay: ACE2 mouse model, TCID50 analysis of lung samples; assay type: in vivo; conditions: K18-hACE2 mice, Day 6 lung; for Titer, TCID50 analysis of lung samples, Group Mean: 7 animals; for Titer, TCID50 analysis of lung samples, individual animals: scored on Vero C1008 (E6) cells after 120 hours
[3] = cited from earlier work
[4] = system: SARS-COV-2 (USA-WA1/2020 Isolate); assay type: cell-based; conditions: Calu-3 cells, Mebendazole 2.3 nM-5000 nM
[5] = system: human lung cancer (Calu-3) cells
in vitro = conditions: human
[6] = pre-clinical models, oral administration; cited from earlier work
[7] = Day 6, 50 mg/kg/day Mebendazole and/or 100 mg/kg/day Imatinib, oral gavage once daily

SMILES | Lung Tissue RT-qPCR Viral Titer Log10, Group Mean [1] | Lung Tissue RT-qPCR Viral Titer Log10, individual animals [1, 7] | Lung Tissue RT-qPCR Viral Titer, individual animals [1, 7] | cytotoxicity (Vero 76 cells) | cytotoxicity (Calu-3) | Titer, TCID50 analysis of lung samples, Group Mean [2] [Log10 TCID50/mL] | Titer, TCID50 analysis of lung samples, individual animals [2] | plasma concentrations ([3]; 100 mg twice daily for three consecutive days) | higher exposure to steady-state ([3]; long-term oral administration) [fold] | oral dose excreted in urine ([3]; oral dose) [%] | oral bioavailability ([3]; reported) [%] | Inhibition of SARS-COV-2 (maximum reached) [4] [%] | inhibition of cell viability ([5]; all tested concentrations up to 5000 nM) [%] | CC50 ([5]; read-out: CC50 (cytotoxic concentration), estimated from absence of cytotoxicity up to 5000 nM) [µM] | CC50 (in vitro) [µM] | bioavailability [6]
Cc1ccc(NC(=O)c2ccc(CN3CCN(C)CC3)cc2)cc1Nc1nccc(-c2cccnc2)n1 [Imatinib] | 7.8 | 7.9 (2×) and 8.0 and 7.3 and 8.5 and 7.6 and 7.7 | 7.80E+07 and 9.13E+07 and 2.15E+07 and 7.53E+07 and 3.12E+08 and 3.67E+07 and 5.37E+07 | no cytotoxicity was observed | no cytotoxicity was observed | 7.4 | 8.0 Log10 TCID50/mL and 6.5 Log10 TCID50/mL and 8.3 Log10 TCID50/mL and 7.5 Log10 TCID50/mL and 5.3 Log10 TCID50/mL and 7.6 Log10 TCID50/mL and 8.5 Log10 TCID50/mL | – | – | – | – | – | – | – | – | –
COC(=O)Nc1nc2ccc(C(=O)c3ccccc3)cc2[nH]1 [Mebendazole] | 7.6 | – | – | – | – | 5.8 | 6.0 Log10 TCID50/mL and 5.3 Log10 TCID50/mL (2×) and 4.8 Log10 TCID50/mL and 5.5 Log10 TCID50/mL and 7.3 Log10 TCID50/mL and 6.5 Log10 TCID50/mL | ≤ 0.03 μg/mL and ≤ 0.1 μM | ~3 | < 2 | 17 | 100 | ~0 | > 5 | > 5 | about 15%
